What was measured:
[1] = target: T1, SIRT1 (Homo sapiens, UniProt Q96EB6); test: Trp mass spectrometry assay of SIRT1 deacetylase activation; type: biochemical; conditions: Trp peptide substrate; for TRP EC1.5 (μM): concentration that results in 150% activation of SIRT1; for TRP % Fold Act: percent maximum fold activation relative to control (100%)
T1 sequence (Q96EB6 1-747): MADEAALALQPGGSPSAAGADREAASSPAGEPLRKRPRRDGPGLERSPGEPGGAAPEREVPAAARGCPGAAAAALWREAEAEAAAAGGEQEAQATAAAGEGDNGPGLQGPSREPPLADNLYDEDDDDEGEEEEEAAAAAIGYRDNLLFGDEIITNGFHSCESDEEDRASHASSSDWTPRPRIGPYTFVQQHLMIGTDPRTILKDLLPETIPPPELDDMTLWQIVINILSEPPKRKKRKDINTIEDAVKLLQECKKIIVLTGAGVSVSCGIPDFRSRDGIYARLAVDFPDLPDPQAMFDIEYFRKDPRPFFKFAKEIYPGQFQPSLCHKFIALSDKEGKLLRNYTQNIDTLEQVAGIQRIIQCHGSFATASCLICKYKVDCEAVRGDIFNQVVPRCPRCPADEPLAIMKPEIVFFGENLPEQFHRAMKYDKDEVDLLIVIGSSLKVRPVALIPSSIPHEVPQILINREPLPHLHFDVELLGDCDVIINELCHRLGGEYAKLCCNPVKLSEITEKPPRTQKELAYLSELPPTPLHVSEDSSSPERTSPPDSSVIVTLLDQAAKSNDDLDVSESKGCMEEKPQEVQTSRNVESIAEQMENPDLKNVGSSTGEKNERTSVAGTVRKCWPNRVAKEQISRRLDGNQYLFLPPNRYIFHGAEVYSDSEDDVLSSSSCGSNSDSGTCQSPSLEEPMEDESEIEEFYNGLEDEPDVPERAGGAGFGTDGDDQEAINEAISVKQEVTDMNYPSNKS
From the text: (§1) Mass spectrometry based assays were used to identify modulators of SIRT1 activity. The TAMRA based assay utilized a peptide having 20 amino acid residues as follows: Ac-EE-K(biotin)-GQSTSSHSK(Ac)NleSTEG-K(5TMR)-EE-NH2 (SEQ ID NO: 1), wherein K(Ac) is an acetylated lysine residue and Nle is a norleucine. The peptide was labeled with the fluorophore 5TMR (excitation 540 nm/emission 580 nm) at the C-terminus. The sequence of the peptide substrate was based on p53 with several modifications. In addition, the methionine residue naturally present in the sequence was replaced with the norleucine because the methionine may be susceptible to oxidation during synthesis and purification. The Trp based assay utilized a peptide having an amino acid residues as follows: Ac-R-H-K-K(Ac)-W-NH2 (SEQ ID NO: 2).
The Trp mass spectrometry assay was conducted as follows. 0.5 μM peptide substrate and 120 μM βNAD^+ were incubated with 10 nM SIRT1 for 25 minutes at 25° C. in a reaction buffer (50 mM HEPES pH 7.5, […], 1 mM DTT, 0.05% BSA). The SIRT1 protein was obtained by cloning the SirT1 gene into a T7-promoter containing vector, which was then expressed in BL21(DE3) bacterial cells and purified as described in further detail below. Test compound was added at varying concentrations to this reaction mixture and the resulting reactions were monitored. After the 25 minute incubation with SIRT1, 10 μL of 10% formic acid was added to stop the reaction. The resulting reactions were sealed and frozen for later mass spec analysis. The relative SIRT1 activity was then determined by measuring the amount of O-acetyl-ADP-ribose (OAADPR) formed (or, alternatively, the amount of deacetylated Trp peptide generated) by the NAD-dependent sirtuin deacetylation reaction in the presence of varying concentrations of the test compound versus control reactions lacking the test compound. The degree to which the test agent activated deacetylation by SIRT1 was expressed as EC1.5 (i.e., the concentration of compound required to increase SIRT1 activity by 50% over the control lacking test compound), and Percent Maximum Activation (i.e., the maximum activity relative to control (100%) obtained for the test compound).
(§2) A control for inhibition of sirtuin activity was conducted by adding 1 μL of 500 mM nicotinamide as a negative control at the start of the reaction (e.g., permits determination of maximum sirtuin inhibition). A control for activation of sirtuin activity was conducted using 10 nM of sirtuin protein, with 1 μL of DMSO in place of compound, to determine the amount of deacetylation of the substrate at a given time point within the linear range of the assay. This time point was the same as that used for test compounds and, within the linear range, the endpoint represents a change in velocity. For the above assay, SIRT1 protein was expressed and purified as follows. The SirT1 gene was cloned into a T7-promoter containing vector and transformed into BL21(DE3). The protein was expressed by induction with 1 mM IPTG as an N-terminal His-tag fusion protein at 18° C. overnight and harvested at 30,000×g. Cells were lysed with lysozyme in lysis buffer (50 mM Tris-HCl, 2 mM Tris[2-carboxyethyl] phosphine (TCEP), 10 μM ZnCl2, 200 mM NaCl) and further treated with sonication for 10 min for complete lysis. The protein was purified over a Ni-NTA column (Amersham) and fractions containing pure protein were pooled, concentrated and run over a sizing column (Sephadex S200 26/60 global). The peak containing soluble protein was collected and run on an Ion-exchange column (MonoQ). Gradient elution (200 mM-500 mM NaCl) yielded pure protein. This protein was concentrated and dialyzed against dialysis buffer (20 mM Tris-HCl, 2 mM TCEP) overnight. The protein was aliquoted and frozen at −80° C. until further use.
Sirtuin-modulating compounds of Formula (I) that activated SIRT1 were identified using the assay described above and are shown below in Table 1. […]

[2] = target: T1, SIRT1; test: TAMRA based mass spectrometry assay of SIRT1 deacetylase activation; type: biochemical; conditions: TAMRA peptide substrate; for TAMRA EC1.5 (μM): concentration that results in 150% activation of SIRT1; for TAMRA % Fold Act: percent maximum fold activation relative to control (100%)
From the text: as §1
The TAMRA based mass spectrometry assay was conducted as follows: 0.5 μM peptide substrate and 120 μM βNAD^+ was incubated with 10 nM SIRT1 for 25 minutes at 25° C. in a reaction buffer (50 mM Tris-acetate pH 8, 137 mM NaCl, 2.7 mM KCl, 1 mM MgCl2, 5 mM DTT, 0.05% BSA). The SIRT1 protein was obtained by cloning the SirT1 gene into a T7-promoter containing vector, which was then transformed and expressed in BL21(DE3) bacterial cells. Test compound was added at varying concentrations to this reaction mixture and the resulting reactions were monitored. After the 25 minute incubation with SIRT1, 10 μL of 10% formic acid was added to stop the reaction. The resulting reactions were sealed and frozen for later mass spec analysis. Determination of the amount of deacetylated substrate peptide formed (or, alternatively, the amount of O-acetyl-ADP-ribose (OAADPR) generated) by the sirtuin-mediated NAD-dependent deacetylation reaction allowed for the precise measurement of relative SIRT1 activity in the presence of varying concentrations of the test compound versus control reactions lacking the test compound.
as §2
Sirtuin-modulating compounds of Formula (I) that activated SIRT1 were identified using the assay described above and are shown below in Table 1. The EC1.5 values represent the concentration of test compounds that result in 150% activation of SIRT1. The EC1.5 values for the activating compounds of Formula (I) are represented by A (EC1.5<1 μM), B (EC1.5 1−25 μM), C (EC1.5>25 μM). […]

Row | Structure (SMILES) | TRP EC1.5 (μM) [1] | TRP % Fold Act [1] | TAMRA EC1.5 (μM) [2] | TAMRA % Fold Act [2]
1 | O=C(Nc1ccccn1)c1cc(N2CCOCC2)nn2cc(-c3cccc(Cl)c3)nc12 [Compound 32] | C (EC1.5>25 μM) | B (Fold Activation<350%) | C (EC1.5>25 μM) | B (Fold Activation<350%)
2 | O=C(Nc1ccccn1)c1cc(N2CCOCC2)nn2cc(-c3ccccc3C(F)(F)F)nc12 [Compound 44] | C (EC1.5>25 μM) | B (Fold Activation<350%) | B (EC1.5 1−25 μM) | B (Fold Activation<350%)
3 | O=C(Nc1ccncc1)c1cc(N2CCOCC2)nn2cc(-c3ccccc3F)nc12 [Compound 41] | C (EC1.5>25 μM) | B (Fold Activation<350%) | C (EC1.5>25 μM) | B (Fold Activation<350%)
4 | Cc1nc(C(=O)Nc2ccnc3cc(-c4ccccc4C(F)(F)F)nn23)c(C)s1 [Compound 57] | B (EC1.5 1−25 μM) | B (Fold Activation<350%) | A (EC1.5<1 μM) | A (Fold activation≧350%)
5 | O=C(Nc1ccncc1)c1cc(N2CCOCC2)nn2cc(-c3cccc(F)c3)nc12 [Compound 29] | C (EC1.5>25 μM) | B (Fold Activation<350%) | C (EC1.5>25 μM) | B (Fold Activation<350%)
6 | O=C(Nc1ccncc1)c1cc(N2CCOCC2)nn2cc(-c3cccc(Cl)c3)nc12 [Compound 54] | C (EC1.5>25 μM) | B (Fold Activation<350%) | C (EC1.5>25 μM) | B (Fold Activation<350%)
7 | O=C(Nc1cccnc1)c1cc(N2CCOCC2)nn2cc(-c3ccccc3C(F)(F)F)nc12 [Compound 45] | B (EC1.5 1−25 μM) | B (Fold Activation<350%) | B (EC1.5 1−25 μM) | A (Fold activation≧350%)
8 | O=C(Nc1ccnc2cc(-c3ccccc3C(F)(F)F)nn12)c1cccc(N2CCOCC2)n1 [Compound 63] | C (EC1.5>25 μM) | B (Fold Activation<350%) | A (EC1.5<1 μM) | B (Fold Activation<350%)

Further lines, results first:

Row | TRP EC1.5 (μM) [1] | TRP % Fold Act [1] | TAMRA EC1.5 (μM) [2] | TAMRA % Fold Act [2] | Structure (SMILES)
9 | C (EC1.5>25 μM) | B (Fold Activation<350%) | C (EC1.5>25 μM) | B (Fold Activation<350%) | Cc1csc(NC(=O)c2ccnc3cc(-c4cccc(C(F)(F)F)c4)nn23)n1 [Compound 89]
10 | C (EC1.5>25 μM) | B (Fold Activation<350%) | C (EC1.5>25 μM) | B (Fold Activation<350%) | O=C(Nc1cnccn1)c1ccnc2cc(-c3cccc(C(F)(F)F)c3)nn12 [Compound 102]
11 | C (EC1.5>25 μM) | B (Fold Activation<350%) | C (EC1.5>25 μM) | B (Fold Activation<350%) | O=C(Nc1ccnc2cc(-c3cccc(C(F)(F)F)c3)nn12)c1ccccn1 [Compound 70]
12 | C (EC1.5>25 μM) | B (Fold Activation<350%) | A (EC1.5<1 μM) | A (Fold activation≧350%) | Cc1cnc(C(=O)Nc2ccnc3cc(-c4ccccc4C(F)(F)F)nn23)cn1 [Compound 108]
13 | C (EC1.5>25 μM) | B (Fold Activation<350%) | C (EC1.5>25 μM) | B (Fold Activation<350%) | O=C(Nc1ccnc2cc(-c3cccc(C(F)(F)F)c3)nn12)c1nccs1 [Compound 95]
14 | C (EC1.5>25 μM) | B (Fold Activation<350%) | B (EC1.5 1−25 μM) | B (Fold Activation<350%) | O=C(Nc1ccnc2cc(-c3ccccc3C(F)(F)F)nn12)c1cccnc1 [Compound 103]
15 | B (EC1.5 1−25 μM) | B (Fold Activation<350%) | B (EC1.5 1−25 μM) | A (Fold activation≧350%) | O=C(Nc1cccnc1)c1ccnc2cc(-c3ccccc3C(F)(F)F)nn12 [Compound 76]
16 | B (EC1.5 1−25 μM) | B (Fold Activation<350%) | A (EC1.5<1 μM) | A (Fold activation≧350%) | O=C(Nc1ccncn1)c1ccnc2cc(-c3ccccc3C(F)(F)F)nn12 [Compound 78]
17 | C (EC1.5>25 μM) | B (Fold Activation<350%) | B (EC1.5 1−25 μM) | B (Fold Activation<350%) | Cn1cnc(C(=O)Nc2ccnc3cc(-c4cccc(C(F)(F)F)c4)nn23)c1 [Compound 96]
18 | A (EC1.5<1 μM) | A (Fold activation≧350%) | A (EC1.5<1 μM) | A (Fold activation≧350%) | O=C(Nc1ccnc2cc(-c3ccccc3C(F)(F)F)nn12)c1cccc(OC[C@H](O)CO)n1 [Compound 114]
